In ChEMBL document CHEMBL3046485, “Photodynamic activities of protoporphyrin IX and its dopamine conjugate against cancer and bacterial cell viability” (2012):
In brackets after ≈: the same amount, converted by molar mass. One block for each compound: values may come before it. Activity calls are given as the source filed them. No cut-off for these calls is given here.

What was measured:
HeLa [1] = experiment: Cytotoxicity against Homo sapiens (human) HeLa cells compound photoirradiated for 20 min followed by 24 hr incubation by LDH release assay; type: functional, cell-based
SH-SY5Y [2] = experiment: Antiproliferative activity against Homo sapiens (human) SH-SY5Y cells at 5 uM compound photoirradiated for 20 min followed by 24 hr incubation by WST-1 assay; type: functional, cell-based
Pseudomonas aeruginosa [3] = experiment: Antibacterial activity against Pseudomonas aeruginosa ATCC 27853 after 24 hr by two-fold serial dilution method; type: functional; conditions: ATCC 27853, 24 h
Pseudomonas aeruginosa [4] = experiment: Bacteriostatic activity against Pseudomonas aeruginosa ATCC 27853 after 24 hr by two-fold serial dilution method; type: functional, organism-based
SH-SY5Y [5] = experiment: Cytotoxicity against Homo sapiens (human) SH-SY5Y cells compound photoirradiated for 20 min followed by 24 hr incubation by LDH release assay; type: functional, cell-based
Bacillus subtilis [6] = experiment: Antibacterial activity against Bacillus subtilis ATCC 6633 compound photoirradiated for 20 min followed by 24 hr incubation by two-fold serial dilution method; type: functional; conditions: ATCC 6633, light or radiation study
U-87MG ATCC [7] = experiment: Antiproliferative activity against Homo sapiens (human) U87 cells at 5 uM after 24 hr by WST-1 assay; type: functional, cell-based
HeLa [8] = experiment: Antiproliferative activity against Homo sapiens (human) HeLa cells at 5 uM after 24 hr by WST-1 assay; type: functional, cell-based
Escherichia coli [9] = experiment: Antibacterial activity against Escherichia coli ATCC 25922 after 24 hr by two-fold serial dilution method; type: functional; conditions: ATCC 25922, 24 h
HeLa [10] = experiment: Cytotoxicity against Homo sapiens (human) HeLa cells at 30 uM compound photoirradiated for 20 min followed by 24 hr incubation by LDH release assay; type: functional, cell-based
Bacillus subtilis [11] = experiment: Antibacterial activity against Bacillus subtilis ATCC 6633 after 24 hr by two-fold serial dilution method; type: functional; conditions: ATCC 6633, 24 h
U-87MG ATCC [12] = experiment: Antiproliferative activity against Homo sapiens (human) U87 cells at 5 uM compound photoirradiated for 20 min followed by 24 hr incubation by WST-1 assay; type: functional, cell-based
Bacillus subtilis [13] = experiment: Antibacterial activity against Bacillus subtilis ATCC 6633 at 16 ug/ml after 24 hr by two-fold serial dilution method; type: functional, organism-based
SH-SY5Y [14] = experiment: Cytotoxicity against Homo sapiens (human) SH-SY5Y cells at 30 uM compound photoirradiated for 20 min followed by 24 hr incubation by LDH release assay; type: functional, cell-based
U-87MG ATCC [15] = experiment: Cytotoxicity against Homo sapiens (human) U87 cells compound photoirradiated for 20 min followed by 24 hr incubation by LDH release assay; type: functional, cell-based
HeLa [16] = experiment: Cytotoxicity against Homo sapiens (human) HeLa cells compound at 1 to 30 uM after 24 hr by LDH release assay; type: functional, cell-based
U-87MG ATCC [17] = experiment: Cytotoxicity against Homo sapiens (human) U87 cells at 1 to 30 uM after 24 hr by LDH release assay; type: functional, cell-based
SH-SY5Y [18] = experiment: Antiproliferative activity against Homo sapiens (human) SH-SY5Y cells at 5 uM after 24 hr by WST-1 assay; type: functional, cell-based
Escherichia coli [19] = experiment: Antibacterial activity against Escherichia coli ATCC 25922 compound photoirradiated for 20 min followed by 24 hr incubation by two-fold serial dilution method; type: functional; conditions: ATCC 25922, light or radiation study
U-87MG ATCC [20] = experiment: Cytotoxicity against Homo sapiens (human) U87 cells at 30 uM compound photoirradiated for 20 min followed by 24 hr incubation by LDH release assay; type: functional, cell-based
Bacillus subtilis [21] = experiment: Antibacterial activity against Bacillus subtilis ATCC 6633 at 16 ug/ml compound photoirradiated for 20 min followed by 24 hr incubation by two-fold serial dilution method; type: functional, organism-based
HeLa [22] = experiment: Antiproliferative activity against Homo sapiens (human) HeLa cells at 5 uM compound photoirradiated for 20 min followed by 24 hr incubation by WST-1 assay; type: functional, cell-based
Pseudomonas aeruginosa [23] = experiment: Antibacterial activity against Pseudomonas aeruginosa ATCC 27853 compound photoirradiated for 20 min followed by 24 hr incubation by two-fold serial dilution method; type: functional; conditions: ATCC 27853, light or radiation study
SH-SY5Y [24] = experiment: Cytotoxicity against Homo sapiens (human) SH-SY5Y cells at 1 to 30 uM after 24 hr by LDH release assay; type: functional, cell-based

MIC (Pseudomonas aeruginosa [3]): 128 µg/mL (≈ 154 µM)
MIC (Bacillus subtilis [6]): 80 µg/mL (≈ 96 µM)
MIC (Escherichia coli [9]): 128 µg/mL (≈ 154 µM)
MIC (Bacillus subtilis [11]): 100 µg/mL (≈ 120 µM)
MIC (Escherichia coli [19]): 128 µg/mL (≈ 154 µM)
MIC (Pseudomonas aeruginosa [23]): 128 µg/mL (≈ 154 µM)
Compound: C=Cc1c(C)c2cc3[nH]c(cc4nc(cc5nc(cc1[nH]2)C(C)=C5CCC(=O)NCCc1ccc(O)c(O)c1)C(CCC(=O)NCCc1ccc(O)c(O)c1)=C4C)c(C)c3C=C
Activity (HeLa [1]): Dose-dependent effect
Activity (SH-SY5Y [2]): Active
Activity (Pseudomonas aeruginosa [4]): Active
Activity (SH-SY5Y [5]): Dose-dependent effect
Activity (U-87MG ATCC [7]): inactive
Activity (HeLa [8]): inactive
Activity (HeLa [10]): inactive
Activity (U-87MG ATCC [12]): Active
Activity (Bacillus subtilis [13]): Active
Activity (SH-SY5Y [14]): inactive
Activity (U-87MG ATCC [15]): Dose-dependent effect
Activity (HeLa [16]): inactive
Activity (U-87MG ATCC [17]): inactive
Activity (SH-SY5Y [18]): inactive
Activity (U-87MG ATCC [20]): inactive
Activity (Bacillus subtilis [21]): inactive
Activity (HeLa [22]): Active
Activity (SH-SY5Y [24]): inactive

Compound: CC1(C)S[C@@H]2[C@H](NC(=O)[C@H](N)c3ccccc3)C(=O)N2[C@H]1C(=O)O [AMPICILLIN]
MIC (Pseudomonas aeruginosa [3]): 128 µg/mL (≈ 366 µM)
MIC (Escherichia coli [9]): > 256 µg/mL
MIC (Bacillus subtilis [11]): > 256 µg/mL

Compound: CC[C@H]1OC(=O)[C@H](C)[C@@H](O[C@H]2C[C@@](C)(OC)[C@@H](O)[C@H](C)O2)[C@H](C)[C@@H](O[C@@H]2O[C@H](C)C[C@H](N(C)C)[C@H]2O)[C@](C)(O)C[C@@H](C)C(=O)[C@H](C)[C@@H](O)[C@]1(C)O [ERYTHROMYCIN]
MIC (Pseudomonas aeruginosa [3]): < 0.125 µg/mL
MIC (Escherichia coli [9]): 128 µg/mL (≈ 174 µM)
MIC (Bacillus subtilis [11]): < 0.125 µg/mL

Compound: NC[C@H]1O[C@H](O[C@H]2[C@H](O)[C@@H](O[C@H]3O[C@H](CO)[C@@H](O)[C@H](N)[C@H]3O)[C@H](N)C[C@@H]2N)[C@H](O)[C@@H](O)[C@@H]1O [KANAMYCIN]
MIC (Pseudomonas aeruginosa [3]): 2 µg/mL (≈ 4.13 µM)
MIC (Escherichia coli [9]): 16 µg/mL (≈ 33 µM)
MIC (Bacillus subtilis [11]): > 256 µg/mL

Compound: CCn1cc(C(=O)O)c(=O)c2ccc(C)nc21 [NALIDIXIC ACID]
MIC (Pseudomonas aeruginosa [3]): 2 µg/mL (≈ 8.61 µM)
MIC (Escherichia coli [9]): 16 µg/mL (≈ 68.9 µM)
MIC (Bacillus subtilis [11]): 8 µg/mL (≈ 34.4 µM)

MIC (Pseudomonas aeruginosa [3]): 128 µg/mL (≈ 227 µM)
MIC (Bacillus subtilis [6]): 80 µg/mL (≈ 142 µM)
MIC (Escherichia coli [9]): 128 µg/mL (≈ 227 µM)
MIC (Bacillus subtilis [11]): 100 µg/mL (≈ 178 µM)
MIC (Escherichia coli [19]): 128 µg/mL (≈ 227 µM)
MIC (Pseudomonas aeruginosa [23]): 128 µg/mL (≈ 227 µM)
Compound: C=CC1=C(C)c2cc3[nH]c(cc4nc(cc5[nH]c(cc1n2)c(C)c5CCC(=O)O)C(CCC(=O)O)=C4C)c(C)c3C=C [PROTOPORPHYRIN]
Activity (HeLa [1]): Dose-dependent effect
Activity (SH-SY5Y [2]): Active
Activity (Pseudomonas aeruginosa [4]): Active
Activity (SH-SY5Y [5]): Dose-dependent effect
Activity (U-87MG ATCC [7]): inactive
Activity (HeLa [8]): inactive
Activity (HeLa [10]): inactive
Activity (U-87MG ATCC [12]): Active
Activity (Bacillus subtilis [13]): Active
Activity (SH-SY5Y [14]): inactive
Activity (U-87MG ATCC [15]): Dose-dependent effect
Activity (HeLa [16]): inactive
Activity (U-87MG ATCC [17]): inactive
Activity (SH-SY5Y [18]): inactive
Activity (U-87MG ATCC [20]): inactive
Activity (Bacillus subtilis [21]): inactive
Activity (HeLa [22]): Active
Activity (SH-SY5Y [24]): inactive

MIC (Pseudomonas aeruginosa [3]): 64 µg/mL (≈ 110 µM)
MIC (Escherichia coli [9]): > 256 µg/mL
MIC (Bacillus subtilis [11]): 16 µg/mL (≈ 27.5 µM)
Compound: CN[C@@H]1[C@H](O[C@H]2[C@H](O[C@H]3[C@H](O)[C@@H](O)[C@H](N=C(N)N)[C@@H](O)[C@@H]3N=C(N)N)O[C@@H](C)[C@]2(O)C=O)O[C@@H](CO)[C@H](O)[C@H]1O [STREPTOMYCIN]

Compound: CN(C)[C@@H]1C(O)=C(C(N)=O)C(=O)[C@@]2(O)C(O)=C3C(=O)c4c(O)cccc4[C@@](C)(O)[C@H]3C[C@@H]12 [TETRACYCLINE]
MIC (Pseudomonas aeruginosa [3]): 1 µg/mL (≈ 2.25 µM)
MIC (Escherichia coli [9]): 2 µg/mL (≈ 4.5 µM)
MIC (Bacillus subtilis [11]): 8 µg/mL (≈ 18 µM)
